We go through one cell line from the supplement of paper PMC10307832.

Common to all, as to experiment: relative viability (nuclei count vs DMSO), 5 days (fraction); higher = more cells survive
Compound in test [1]: CCOC1=CC=CC=C1N=NC2=C(NN(C2=O)C3=NC(=CS3)C4=CC=CC=C4)C [BAM7] + CC(C)C[C@H](NC(=O)[C@H](Cc1ccccc1)NC(=O)c1cnccn1)B(O)O [Bortezomib] (partner 0.002 µM)
The gist of the method: (§1)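 Lung cancer cell lines were pin-tool dosed in 1536-well plates on the day after seeding, with either a lone drug or a fixed anchor-drug dose plus five library-drug doses (not always all listed) in √10 steps. Nuclei were counted on 4× images after 5 days. Relative viability is the ratio of treated-well to vehicle-well nuclei counts, with each value a median of duplicate plates.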

Compound in test [2]: CCOC1=CC=CC=C1N=NC2=C(NN(C2=O)C3=NC(=CS3)C4=CC=CC=C4)C [BAM7] + O=C(CCCCCCC(=O)Nc1ccccc1)NO [Vorinostat] (partner 1 µM)
The gist of the method: as §1

Compound in test [3]: CCn1c(-c2nonc2N)nc2c(C#CC(C)(C)O)ncc(OC[C@H]3CCCNC3)c21 + COc1cccc2cc(-c3nc([C@H]4CC[C@H](C(=O)O)CC4)n4ncnc(N)c34)[nH]c12 [OSI-027] (partner 0.5 µM)
Summed up:
as §1

Compound in test [4]: CCn1c(-c2nonc2N)nc2c(C#CC(C)(C)O)ncc(OC[C@H]3CCCNC3)c21 + Nc1ncn([C@H]2C[C@H](O)[C@@H](CO)O2)c(=O)n1 [Decitabine] (partner 2 µM)
Summed up:
as §1

Turning to UMC-11, the relative viability in test [1] (first compound 0.5 µM) worked out at 0.78; in test [1] (first compound 5 µM), 0.89; in test [1] (first compound 15.81 µM), 0.67; in test [1] (first compound 50 µM), 0.905; in test [2] (first compound 0.5 µM), 0.37; in test [2] (first compound 5 µM), 0.478. For the same cell line, the relative viability in test [2] (first compound 15.81 µM) amounted to 0.469; in test [2] (first compound 50 µM), 0.362; in test [3] (first compound 0.01 µM) it was 0.512; in test [3] (first compound 0.03162 µM), 0.489; in test [3] (first compound 0.1 µM) it was 0.515; in test [3] (first compound 0.3162 µM), 0.423. Moreover, the relative viability in test [3] (first compound 1 µM) was 0.496; in test [4] (first compound 0.01 µM) it was 0.533; in test [4] (first compound 0.03162 µM), 0.46; in test [4] (first compound 0.1 µM), 0.6; in test [4] (first compound 0.3162 µM), 0.686; in test [4] (first compound 1 µM) it was 0.607.
